We go through 3 compounds from US4223034A, “Aniline derivatives” (Beecham Group Limited, priority 1977, dated 1980).

Read-outs that look alike come from different tables or passages of the source.

Data set [1] in a line: in vivo. Conditions: sc.
The nature of data set [2]: in vivo. As to conditions: mouse, po. The protocol: (§1) a. […] On the anti-catepressan test [based on Costal et al, Europ. […] The LD50 of the compound of Example 3 is about 500 mg/kg per oral in the mouse.
Data set [3] is described as follows: anti-catepressan test. The class given is in vivo. As to conditions: per oral. The protocol: as §1
In data set [4] the test system is catalepsy.
The subject of data set [5] is amphetamine induced stereotypy. The experiment in a line: amphetamine stereotype test (antagonism of amphetamine induced stereotypy). The class given is in vivo, rats. Conditions: for ED50: Rattus norvegicus, sc.
Where [6] appears, read: S.C., Table 1, read-out: ED50, antagonism of amphetamine induced stereotypy.

As a reminder, the ED50 is the dose at which the effect has come halfway, by size or by number of responders. A word on the LD50: it is the dose at which mortality reaches 50%. Lower therefore signals greater toxicity. For the compound `COc1cc(N)c(Cl)cc1NC(=O)C1CCN(Cc2ccccc2)CC1` [Example 3, 5-Amino-4-chloro-2-(1^1-benzylpiperidine-4-carboxamido)-anisole], the ED50 was determined as 6 mg/kg in data set [1]; 5 mg/kg in data set [3]; 0.2 mg/kg in data set [5] (setting [6]); 0.2 mg/kg in data set [5] (rats, administered sub-cutaneously, read-out: ED50, amphetamine stereotype test). Besides, the LD50 in data set [2] is around 500 mg/kg. The “propensity to induce catalepsy relative to anti-stereotypy activity (in words)” value in data set [4] (in vivo) was “weaker propensity to induce catalepsy”. Besides, the “Ratio catalepsy / anti-sterotypy” value in data set [4] (in vivo, sc) came out at 30. In addition, the “anti-psychotic or neuroleptic activity (in words)” value in data set [5] (as judged by amphetamine induced stereotypy test) is recorded as “have anti-psychotic or neuroleptic activity”.

Consider `CN(C)CCCN1c2ccccc2Sc2ccc(Cl)cc21` [Chlorpromazine, reference compound], for which the ED50 was 3 mg/kg in data set [1] and 1 mg/kg in data set [5] (setting [6]). Further, the “Ratio catalepsy / anti-sterotypy” value in data set [4] (ratio of ED50 values S.C., Table 1) turned out to be 3.

With `O=C(CCCN1CCC(O)(c2ccc(Cl)cc2)CC1)c1ccc(F)cc1` [Haloperidol, reference compound], the results for the ED50 in data set [1] and in data set [5] (setting [6]) were 0.3 mg/kg and 0.05 mg/kg, respectively.
